Results published in PMC10574532, “Revisiting Supersaturation of a Biopharmaceutical Classification System IIB Drug: Evaluation via a Multi-Cup Dissolution Approach and Molecular Dynamic Simulation” (Molecules, 2023).
≈ marks a conversion by molar mass, not a printed value.

Experiments:
[1] = pH-dependent equilibrium solubility of ketoconazole in biorelevant fluids (FaSSIF) with or without precipitation inhibitor; assay type: physicochemical; details: modified Henderson-Hasselbalch fit, 37 °C
Experimental: Specifically, FaSSIF was prepared with different proportions of 0.2 mol/L disodium hydrogen phosphate (Na2HPO4) solution and 0.1 mol/L citric acid (C6H8O7) solution, with commercial standard FaSSIF powder. […] The final pH of each solution was measured before centrifugation at 10,000× g for 10 min at 37 °C. […] A sample volume of 10 μL was injected and subsequently separated on a Kromasil C18 column (5 μm, 4.6 × 250 mm) maintained at a temperature of 30 °C. The mobile phase consisted of a modified phosphoric acid solution containing 10 mM KH2PO4 in water (pH adjusted to 3.0), along with acetonitrile in a ratio of 50:50 (v/v). The flow rate employed was set at 1 mL/min while detection occurred at a wavelength of 254 nm.

[2] = Supersaturation-precipitation and absorption in the dynamic gastrointestinal model (DGIM); assay type: physicochemical
Experimental: The DGIM is achieved through a system consisting of 3 dissolution cups, which represent stomach, duodenum, and jejunum, respectively, filled with corresponding biorelevant fluid. N-octanol serves as the absorptive phase. The pumps facilitate fluid transfer, as depicted by arrows in Figure 9. In situ drug concentration is determined using fiber optical probes, and dynamic pH value of the aqueous fluid is monitored by pH electrodes. The parameters of DGIM can be adjusted to meet some special physiological conditions.
In this study, most of the parameters were based on the GIS proposed by Hens et al.. The pH values in the three cups were adjusted to 2.0, 5.9, and 6.1, respectively, to simulate the physiological digestive fluid in the stomach, duodenum, and jejunum of the fasted rats. […] The secretions used were biorelevant fluids that had been concentrated four times and pumped at a rate of 1 mL/min. Considering an average gastric half-emptying time ( th ) of approximately eight minutes, pump A transported gastric fluid into the duodenal cup at this first-order rate. Ensuring that the volume of biorelevant fluid in the duodenal cup was maintained at a constant level of 50 mL, any excess fluid was transported to the jejunal cup through pump B. Therefore, we can represent the rates va for pump A and vb for pump B at time t using following equations:(5) va=ln2×Vg,0×exp−ln2×t/th+1 (6) vb=va+1
The pump rate was regulated by a mono-chip computer, which was programmed to dynamically adjust the rate every second in accordance with first-order kinetics. […] The pumps worked until 40 min because, at that time, the solution in the gastric cup was less than 10 mL. However, the experiment continued for 3 h. The paddles were stirred at a rate of 50 rpm. All the cups were in a water bath at 37 °C.
Fiber optic probes with a 1 mm tip were connected to the instrument and employed for the detection of the 270–275 nm wavelength band. This detection specifically targeted the area under the curve (AUC) of the second derivatized absorbance curves. Calibration was performed using the accumulated addition method. The standard curves encompassed a wide concentration range in the dissolution process while ensuring linearity with an r^2 > 0.999.

In vivo pharmacokinetics = assay: In vivo pharmacokinetics; parameters: species or system Male Sprague Dawley rats; details: plasma, rat
Experimental: The animal study was conducted in accordance with the National Research Council’s Guide for the Care and Use of Laboratory Animals and approved by the Ethics Committee of Chengdu University of Traditional Chinese Medicine (Approval Code: 2021-76). All procedures were performed in compliance with relevant regulations and guidelines. Male Sprague Dawley rats weighing 180–220 g were fasted overnight (12 h) with free access to water, then randomly assigned to 4 groups (n = 6). […] Approximately 50 μL of blood samples were collected into EDTA-K2-treated Eppendorf tubes at time points ranging from 0.083, 0.25, 0.5, 1, 2, 4, and 6 to 10 h after dosing. The blood samples were centrifuged at 2000× g and 4 °C for 10 min, followed by collection and storage of the supernatant plasma at −20 °C until analysis. […] A protein precipitation method was employed to pretreat 10 μL plasma with 430 μL acetonitrile, 50 μL internal standard solution (gefitinib), and 10 μL mobile phase. After centrifugation at 10,000× g for 10 min at 4 °C, the supernatant was injected into the apparatus and then separated by a Thermo Hypersil C18 chromatographic column (3 μm, 2.1 mm × 50 mm) at 40 °C. […] Phoenix 8.1 WinNonlin Toolkit (Certara, Princeton, NJ, USA) was employed to conduct the non-compartment model of pharmacokinetic analysis.

[3] = IVIVC prediction based on DGIM in vitro absorption data; parameters: species or system Male Sprague Dawley rats; details: predicted through IVIVC from DGIM
Experimental: (§1) The in vitro–in vivo correlation (IVIVC) was performed using Phoenix 8.1 IVIVC Toolkit (Certara, Princeton, NJ, USA). […] Double Weibull Dissolution Model was selected for fitting both dissolution data from the absorptive phase of DGIM and USP II. The absorption data were obtained via deconvolution analysis of the drug plasma concentration–time curves. The reference formulation for deconvolution to estimate oral absorption was based on the in vivo data of the i.v. group. Additionally, both control group and PVPVA group’s in vitro data were used to establish a correlation between dissolved fraction and absorbed fraction, while the HPMC group’s data served as external validation. The maximum number of unit impulse response exponentials defaulted to three. With WinNonlin Generated Initial Parameter and Winnonlin Bounds, the best correlation model was selected according to the lowest AIC. Validation parameters included AUClast calculated with linear trapezoidal method along with linear interpolation averaging as mean values were adopted. The process of prediction followed the same parameters above. The prediction error (PE) was evaluated following the FDA’s guidance.

[4] = IVIVC prediction based on USP II in vitro absorption data; parameters: species or system Male Sprague Dawley rats; details: predicted through IVIVC from USP II
Experimental: as §1

[5] = phosphate buffer ref 19; cited from earlier work
[6] = aqueous phase of the duodenal cup

CC(=O)N1CCN(c2ccc(OCC3COC(Cn4ccnc4)(c4ccc(Cl)cc4Cl)O3)cc2)CC1 (centres unmarked) [ketoconazole, Ketoconazole]
pKa ([1]; FaSSIF (biorelevant fluid), read-out: pKa of the fitted pH-solubility function): 6.32 | solubility at 24 h ([1]; FaSSIF, read-out: CU (concentration of unionized form) of the fitted pH-solubility function): 7.88 µg/mL (≈ 14.8 µM) | DSAUC (area under the degree of supersaturation over time curve) ([2]; Duodenal): 3.715 | DSAUC (area under the degree of supersaturation over time curve) ([2]; Jejunal): 5.452 | major precipitation time [2, 6]: 19 min | maximum concentration of ketoconazole [2, 6]: 1049 µg/mL | maximum concentration of ketoconazole ([2]; jejunal aqueous phase): 282 µg/mL | bioavailability (In vivo pharmacokinetics; male, Sprague Dawley, oral 10 mg/kg vs i.v. 2.5 mg/kg, read-out: absolute bioavailability): 70% | AUC (In vivo pharmacokinetics; male, Sprague Dawley, po, 10 mg/kg, read-out: AUC, Observation): 113 µg·h/mL | Cmax (In vivo pharmacokinetics; male, Sprague Dawley, po, 10 mg/kg, read-out: Cmax, Observation): 41300 ng/mL | AUC, Observation (In vivo pharmacokinetics; oral 10 mg/kg ketoconazole): 112,853 h·ng·mL^−1 | Cmax, Observation (In vivo pharmacokinetics; oral 10 mg/kg ketoconazole): 41,300 ng·mL^−1 | AUC, Prediction [3]: 114,652 h·ng·mL^−1 | Cmax, Prediction [3]: 45,529 ng·mL^−1 | AUC, Prediction [4]: 108,727 h·ng·mL^−1 | Cmax, Prediction [4]: 45,702 ng·mL^−1 | pKa, reported value [5]: 6.5
